# Test results as given in the kinase profiling compilation of Christmann-Franck et al. (2016).
# How the values were obtained:
# Test in all cases: radiometric filter-binding kinase assay, Kinase HotSpot
# Conditions in all cases: compound 0.5 µM; ATP 10 µM
# CDK4 CCND3 (human) = CDK4 CCND3 (human) (UniProt P30281+P11802)
# RPS6KA4 KD2 (human) = RPS6KA4 KD2 (human) (UniProt O75676)
# DAPK1 (human) = DAPK1 (human) (UniProt P53355)
# RIPK2 (human) = RIPK2 (human) (UniProt O43353)
# RPS6KB2 (human) = RPS6KB2 (human) (UniProt Q9UBS0)
# FGFR4 (human) = FGFR4 (human) (UniProt P22455)
# PKN1 (human) = PKN1 (human) (UniProt Q16512)
# DYRK4 (human) = DYRK4 (human) (UniProt Q9NR20)
# FYN (human) = FYN (human) (UniProt P06241)
# TSSK2 (human) = TSSK2 (human) (UniProt Q96PF2)
# [1] = target: TYK2 JH1 catalytic (human) (UniProt P29597)
# MELK (human) = MELK (human) (UniProt Q14680)
# CSNK1E (human) = CSNK1E (human) (UniProt P49674)
# PIM1 (human) = PIM1 (human) (UniProt P11309)
# EPHB1 (human) = EPHB1 (human) (UniProt P54762)
# CLK2 (human) = CLK2 (human) (UniProt P49760)
# PHKG1 (human) = PHKG1 (human) (UniProt Q16816)
# MAP3K9 (human) = MAP3K9 (human) (UniProt P80192)
# [2] = tested on: PRKCQ (human), Q04759 [P330L]
# AKT1 (human) = AKT1 (human) (UniProt P31749)
# MYLK2 (human) = MYLK2 (human) (UniProt Q9H1R3)
# STK11 (human) = STK11 (human) (UniProt Q15831)
# INSRR (human) = INSRR (human) (UniProt P14616)
# MAPK9 (human) = MAPK9 (human) (UniProt P45984)
# CSNK1G3 (human) = CSNK1G3 (human) (UniProt Q9Y6M4)
# INSR (human) = INSR (human) (UniProt P06213)
# MAP3K10 (human) = MAP3K10 (human) (UniProt Q02779)
# TEC (human) = TEC (human) (UniProt P42680)
# AURKB (human) = AURKB (human) (UniProt Q96GD4)
# ERBB4 (human) = ERBB4 (human) (UniProt Q15303)
# KDR (human) = KDR (human) (UniProt P35968)
# [3] = tested on: MKNK1 (human), Q9BUB5 [T385D; 165-205 del]
# SRC (human) = SRC (human) (UniProt P12931)
# HIPK4 (human) = HIPK4 (human) (UniProt Q8NE63)
# CDK7 CCNH MNAT1 (human) = CDK7 CCNH MNAT1 (human) (UniProt P50613+P51948+P51946)
# MERTK (human) = MERTK (human) (UniProt Q12866)
# DCLK2 (human) = DCLK2 (human) (UniProt Q8N568)
# BLK (human) = BLK (human) (UniProt P51451)
# GRK5 (human) = GRK5 (human) (UniProt P34947)
# ROCK2 (human) = ROCK2 (human) (UniProt O75116)
# FLT3 (human) = FLT3 (human) (UniProt P36888)
# WNK2 (human) = WNK2 (human) (UniProt Q9Y3S1)
# Chain of ERBB4 (human) (Q15303 whole entry, looked up): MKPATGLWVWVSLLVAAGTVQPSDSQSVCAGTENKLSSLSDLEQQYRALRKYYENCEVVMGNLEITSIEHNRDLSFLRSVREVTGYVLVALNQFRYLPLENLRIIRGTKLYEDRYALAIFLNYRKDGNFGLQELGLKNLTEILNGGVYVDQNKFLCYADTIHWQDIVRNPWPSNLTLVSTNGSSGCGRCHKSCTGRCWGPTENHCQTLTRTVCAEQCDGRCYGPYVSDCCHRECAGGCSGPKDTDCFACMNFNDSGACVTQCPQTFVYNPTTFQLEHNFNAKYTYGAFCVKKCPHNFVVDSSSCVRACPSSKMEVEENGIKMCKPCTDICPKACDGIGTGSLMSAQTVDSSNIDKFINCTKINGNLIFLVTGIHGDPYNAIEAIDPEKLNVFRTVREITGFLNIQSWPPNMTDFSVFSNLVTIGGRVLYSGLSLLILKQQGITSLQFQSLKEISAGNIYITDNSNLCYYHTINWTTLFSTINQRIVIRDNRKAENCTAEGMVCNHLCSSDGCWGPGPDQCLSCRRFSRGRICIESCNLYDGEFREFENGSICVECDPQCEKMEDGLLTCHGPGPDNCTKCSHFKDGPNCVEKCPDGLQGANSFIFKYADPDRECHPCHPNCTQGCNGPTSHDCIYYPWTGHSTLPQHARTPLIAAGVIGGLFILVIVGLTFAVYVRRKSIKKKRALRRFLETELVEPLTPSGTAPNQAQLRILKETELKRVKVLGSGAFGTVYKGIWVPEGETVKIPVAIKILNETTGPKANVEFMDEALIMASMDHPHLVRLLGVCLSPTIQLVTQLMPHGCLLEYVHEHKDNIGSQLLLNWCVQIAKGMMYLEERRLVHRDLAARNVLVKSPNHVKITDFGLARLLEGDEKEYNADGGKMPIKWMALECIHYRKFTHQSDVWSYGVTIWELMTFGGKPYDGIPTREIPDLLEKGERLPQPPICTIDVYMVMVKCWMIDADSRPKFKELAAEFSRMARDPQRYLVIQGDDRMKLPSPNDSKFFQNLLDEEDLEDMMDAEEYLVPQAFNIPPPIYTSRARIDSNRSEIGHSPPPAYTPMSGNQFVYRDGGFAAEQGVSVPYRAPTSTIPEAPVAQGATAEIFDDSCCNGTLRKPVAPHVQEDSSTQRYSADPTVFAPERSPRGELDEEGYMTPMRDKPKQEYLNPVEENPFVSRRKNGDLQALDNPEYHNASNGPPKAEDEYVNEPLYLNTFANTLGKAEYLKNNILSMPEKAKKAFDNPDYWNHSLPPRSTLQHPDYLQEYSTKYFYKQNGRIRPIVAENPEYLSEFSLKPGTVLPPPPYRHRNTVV
# Chain of RPS6KB2 (human) (Q9UBS0 whole entry, looked up): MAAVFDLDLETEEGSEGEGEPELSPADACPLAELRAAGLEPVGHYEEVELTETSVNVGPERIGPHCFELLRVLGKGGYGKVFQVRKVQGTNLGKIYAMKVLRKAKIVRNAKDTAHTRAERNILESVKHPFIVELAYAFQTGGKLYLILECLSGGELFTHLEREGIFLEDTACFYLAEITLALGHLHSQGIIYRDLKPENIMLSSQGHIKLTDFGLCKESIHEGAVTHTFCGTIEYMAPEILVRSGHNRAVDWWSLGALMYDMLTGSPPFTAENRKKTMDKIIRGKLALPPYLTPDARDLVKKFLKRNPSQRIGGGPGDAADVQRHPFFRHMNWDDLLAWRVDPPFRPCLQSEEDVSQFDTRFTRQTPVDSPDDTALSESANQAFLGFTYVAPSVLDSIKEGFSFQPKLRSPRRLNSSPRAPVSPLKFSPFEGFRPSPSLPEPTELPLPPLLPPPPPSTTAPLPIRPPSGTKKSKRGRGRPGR
# Chain of AKT1 (human) (P31749 whole entry, looked up): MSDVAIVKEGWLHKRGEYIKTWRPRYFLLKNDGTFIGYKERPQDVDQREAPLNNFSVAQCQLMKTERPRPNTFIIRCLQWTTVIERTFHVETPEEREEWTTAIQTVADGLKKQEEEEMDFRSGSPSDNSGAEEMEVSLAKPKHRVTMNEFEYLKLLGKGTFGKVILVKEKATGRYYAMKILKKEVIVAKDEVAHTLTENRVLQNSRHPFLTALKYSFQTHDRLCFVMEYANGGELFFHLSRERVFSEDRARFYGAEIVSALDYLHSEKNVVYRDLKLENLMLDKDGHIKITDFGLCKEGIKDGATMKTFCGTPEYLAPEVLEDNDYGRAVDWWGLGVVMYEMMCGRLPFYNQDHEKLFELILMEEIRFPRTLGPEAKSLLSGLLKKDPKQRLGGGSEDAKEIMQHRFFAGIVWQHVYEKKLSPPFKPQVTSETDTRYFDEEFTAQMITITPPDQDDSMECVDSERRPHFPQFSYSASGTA
# Chain of INSR (human) (P06213 whole entry, looked up): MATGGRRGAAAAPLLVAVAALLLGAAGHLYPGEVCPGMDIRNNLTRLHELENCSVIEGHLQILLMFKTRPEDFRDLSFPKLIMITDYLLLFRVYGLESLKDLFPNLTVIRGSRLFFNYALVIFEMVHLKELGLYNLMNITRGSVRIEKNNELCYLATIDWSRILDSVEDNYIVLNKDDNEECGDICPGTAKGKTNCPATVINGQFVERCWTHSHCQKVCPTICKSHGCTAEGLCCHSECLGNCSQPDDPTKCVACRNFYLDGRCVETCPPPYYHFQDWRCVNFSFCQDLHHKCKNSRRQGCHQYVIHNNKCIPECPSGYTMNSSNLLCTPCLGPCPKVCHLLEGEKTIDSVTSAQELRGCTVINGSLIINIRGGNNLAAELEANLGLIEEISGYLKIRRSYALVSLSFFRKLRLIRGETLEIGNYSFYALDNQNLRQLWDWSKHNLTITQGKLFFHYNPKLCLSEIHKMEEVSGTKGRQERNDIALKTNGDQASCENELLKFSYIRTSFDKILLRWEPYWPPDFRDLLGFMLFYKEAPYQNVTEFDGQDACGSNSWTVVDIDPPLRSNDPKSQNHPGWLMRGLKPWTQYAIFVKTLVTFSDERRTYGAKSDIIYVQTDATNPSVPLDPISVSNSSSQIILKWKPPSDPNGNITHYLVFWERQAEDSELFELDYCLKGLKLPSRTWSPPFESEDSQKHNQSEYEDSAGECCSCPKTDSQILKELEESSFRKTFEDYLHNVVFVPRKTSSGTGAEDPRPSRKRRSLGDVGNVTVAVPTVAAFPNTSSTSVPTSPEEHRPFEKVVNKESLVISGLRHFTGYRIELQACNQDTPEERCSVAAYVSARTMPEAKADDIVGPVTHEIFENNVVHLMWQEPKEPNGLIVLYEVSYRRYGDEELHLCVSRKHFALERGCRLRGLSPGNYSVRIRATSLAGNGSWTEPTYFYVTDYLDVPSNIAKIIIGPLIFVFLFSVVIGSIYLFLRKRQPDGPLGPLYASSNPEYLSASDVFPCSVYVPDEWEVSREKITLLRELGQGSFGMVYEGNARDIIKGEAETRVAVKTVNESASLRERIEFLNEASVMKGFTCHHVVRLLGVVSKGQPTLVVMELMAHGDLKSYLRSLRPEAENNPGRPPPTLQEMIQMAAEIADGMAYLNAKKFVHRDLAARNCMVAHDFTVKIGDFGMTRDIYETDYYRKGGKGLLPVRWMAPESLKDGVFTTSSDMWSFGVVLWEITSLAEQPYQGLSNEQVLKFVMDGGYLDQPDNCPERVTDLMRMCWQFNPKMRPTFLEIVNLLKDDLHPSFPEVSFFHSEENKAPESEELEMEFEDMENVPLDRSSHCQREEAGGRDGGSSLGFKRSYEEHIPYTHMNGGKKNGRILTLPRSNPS
# Chain of DYRK4 (human) (Q9NR20 whole entry, looked up): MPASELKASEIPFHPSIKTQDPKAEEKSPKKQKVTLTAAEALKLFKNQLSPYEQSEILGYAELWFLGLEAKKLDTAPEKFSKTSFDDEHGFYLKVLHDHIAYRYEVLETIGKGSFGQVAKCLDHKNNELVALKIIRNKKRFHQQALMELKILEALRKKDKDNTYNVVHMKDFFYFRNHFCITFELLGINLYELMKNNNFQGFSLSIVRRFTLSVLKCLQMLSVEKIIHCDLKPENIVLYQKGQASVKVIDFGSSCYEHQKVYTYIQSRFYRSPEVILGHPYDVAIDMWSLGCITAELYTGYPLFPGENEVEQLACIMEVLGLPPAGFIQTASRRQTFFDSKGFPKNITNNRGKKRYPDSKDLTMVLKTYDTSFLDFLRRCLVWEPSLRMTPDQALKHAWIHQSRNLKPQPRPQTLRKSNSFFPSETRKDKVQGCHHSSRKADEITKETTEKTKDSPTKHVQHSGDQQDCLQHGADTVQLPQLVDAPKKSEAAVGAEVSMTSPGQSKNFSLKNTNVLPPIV
# Chain of TEC (human) (P42680 whole entry, looked up): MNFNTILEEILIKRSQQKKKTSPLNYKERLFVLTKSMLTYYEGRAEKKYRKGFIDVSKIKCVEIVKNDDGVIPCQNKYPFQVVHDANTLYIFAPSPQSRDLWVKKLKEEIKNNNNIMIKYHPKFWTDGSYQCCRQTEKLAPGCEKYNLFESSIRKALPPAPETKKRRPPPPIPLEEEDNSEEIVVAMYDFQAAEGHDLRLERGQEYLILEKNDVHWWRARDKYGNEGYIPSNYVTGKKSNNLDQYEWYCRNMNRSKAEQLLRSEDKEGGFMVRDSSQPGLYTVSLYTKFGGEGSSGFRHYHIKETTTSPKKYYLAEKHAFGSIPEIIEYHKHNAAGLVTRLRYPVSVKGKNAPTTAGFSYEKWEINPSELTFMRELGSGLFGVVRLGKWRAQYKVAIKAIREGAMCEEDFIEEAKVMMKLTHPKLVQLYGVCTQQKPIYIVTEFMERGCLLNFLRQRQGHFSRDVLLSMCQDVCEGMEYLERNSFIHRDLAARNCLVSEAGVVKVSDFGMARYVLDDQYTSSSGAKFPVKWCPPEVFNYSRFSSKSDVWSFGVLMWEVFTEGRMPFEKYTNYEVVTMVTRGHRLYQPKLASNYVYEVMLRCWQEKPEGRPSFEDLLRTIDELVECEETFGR
structure (smiles),measurement,setting,value
Ic1cccc(CSc2nnc(-c3ccncc3)o2)c1,residual activity,CDK4 CCND3 (human),97.5%
same,residual activity,RPS6KA4 KD2 (human),92.1%
same,residual activity,DAPK1 (human),90.3%
same,residual activity,RIPK2 (human),86.3%
same,residual activity,RPS6KB2 (human),103%
same,residual activity,FGFR4 (human),97.2%
same,residual activity,PKN1 (human),98.6%
same,residual activity,DYRK4 (human),98.5%
same,residual activity,FYN (human),102%
same,residual activity,TSSK2 (human),110%
same,residual activity,[1],105%
same,residual activity,MELK (human),97.7%
same,residual activity,CSNK1E (human),94.3%
same,residual activity,PIM1 (human),102%
same,residual activity,EPHB1 (human),101%
same,residual activity,CLK2 (human),104%
same,residual activity,PHKG1 (human),105%
same,residual activity,MAP3K9 (human),108%
same,residual activity,[2],120%
same,residual activity,AKT1 (human),98.6%
same,residual activity,MYLK2 (human),101%
same,residual activity,STK11 (human),103%
same,residual activity,INSRR (human),98%
same,residual activity,MAPK9 (human),108%
same,residual activity,CSNK1G3 (human),75.9%
same,residual activity,INSR (human),83.5%
same,residual activity,MAP3K10 (human),102%
same,residual activity,TEC (human),106%
same,residual activity,AURKB (human),99.1%
same,residual activity,ERBB4 (human),96.4%
same,residual activity,KDR (human),78.1%
same,residual activity,[3],109%
same,residual activity,SRC (human),101%
same,residual activity,HIPK4 (human),98.8%
same,residual activity,CDK7 CCNH MNAT1 (human),96.7%
same,residual activity,MERTK (human),96.4%
same,residual activity,DCLK2 (human),100%
same,residual activity,BLK (human),103%
same,residual activity,GRK5 (human),106%
same,residual activity,ROCK2 (human),89%
same,residual activity,FLT3 (human),102%
same,residual activity,WNK2 (human),99.5%
CN(C)S(=O)(=O)c1ccc2c(c1)/C(=C/c1cc3c([nH]1)CCCC3)C(=O)N2,residual activity,CDK4 CCND3 (human),99.1%
same,residual activity,RPS6KA4 KD2 (human),104%
same,residual activity,DAPK1 (human),102%
same,residual activity,RIPK2 (human),88.9%
same,residual activity,RPS6KB2 (human),92.6%
same,residual activity,FGFR4 (human),92.9%
same,residual activity,PKN1 (human),91.2%
same,residual activity,DYRK4 (human),98.2%
same,residual activity,FYN (human),33.1%
same,residual activity,TSSK2 (human),91.8%
same,residual activity,[1],11.4%
same,residual activity,MELK (human),89.1%
same,residual activity,CSNK1E (human),104%
same,residual activity,PIM1 (human),101%
same,residual activity,EPHB1 (human),82.8%
same,residual activity,CLK2 (human),32.1%
same,residual activity,PHKG1 (human),72.4%
same,residual activity,MAP3K9 (human),74.6%
same,residual activity,[2],112%
same,residual activity,AKT1 (human),107%
same,residual activity,MYLK2 (human),97.9%
same,residual activity,STK11 (human),90.4%
same,residual activity,INSRR (human),93.3%
same,residual activity,MAPK9 (human),104%
same,residual activity,CSNK1G3 (human),101%
same,residual activity,INSR (human),91.6%
same,residual activity,MAP3K10 (human),99.1%
same,residual activity,TEC (human),116%
same,residual activity,AURKB (human),11%
same,residual activity,ERBB4 (human),106%
same,residual activity,KDR (human),96.9%
same,residual activity,[3],108%
same,residual activity,SRC (human),23.6%
same,residual activity,HIPK4 (human),98.8%
same,residual activity,CDK7 CCNH MNAT1 (human),76.4%
same,residual activity,MERTK (human),20.9%
same,residual activity,DCLK2 (human),72%
same,residual activity,BLK (human),13.9%
same,residual activity,GRK5 (human),95.3%
same,residual activity,ROCK2 (human),88.2%
same,residual activity,FLT3 (human),10.2%
same,residual activity,WNK2 (human),101%
O=C(c1cc2cc(O)ccc2[nH]1)c1cc2cc(O)ccc2[nH]1,residual activity,CDK4 CCND3 (human),105%
same,residual activity,RPS6KA4 KD2 (human),81.3%
same,residual activity,DAPK1 (human),101%
same,residual activity,RIPK2 (human),37.8%
same,residual activity,RPS6KB2 (human),102%
same,residual activity,FGFR4 (human),92.8%
same,residual activity,PKN1 (human),76.3%
same,residual activity,DYRK4 (human),99.7%
same,residual activity,FYN (human),28.8%
same,residual activity,TSSK2 (human),93.6%
same,residual activity,[1],66.7%
same,residual activity,MELK (human),49.2%
same,residual activity,CSNK1E (human),88.4%
same,residual activity,PIM1 (human),76.1%
same,residual activity,EPHB1 (human),97%
same,residual activity,CLK2 (human),105%
same,residual activity,PHKG1 (human),72.1%
same,residual activity,MAP3K9 (human),42.6%
same,residual activity,[2],92.1%
same,residual activity,AKT1 (human),98.2%
same,residual activity,MYLK2 (human),21.1%
same,residual activity,STK11 (human),101%
same,residual activity,INSRR (human),97.1%
same,residual activity,MAPK9 (human),116%
same,residual activity,CSNK1G3 (human),77.2%
same,residual activity,INSR (human),93.8%
same,residual activity,MAP3K10 (human),91.7%
same,residual activity,TEC (human),105%
same,residual activity,AURKB (human),24.2%
same,residual activity,ERBB4 (human),102%
same,residual activity,KDR (human),69.9%
same,residual activity,[3],83.6%
same,residual activity,SRC (human),36.4%
same,residual activity,HIPK4 (human),99.8%
same,residual activity,CDK7 CCNH MNAT1 (human),93.5%
same,residual activity,MERTK (human),81.8%
same,residual activity,DCLK2 (human),88.4%
same,residual activity,BLK (human),49.7%
same,residual activity,GRK5 (human),104%
same,residual activity,ROCK2 (human),92.9%
same,residual activity,FLT3 (human),3.53%
same,residual activity,WNK2 (human),96.6%
